Assay results published in the NIST ThermoML archive (doi:10.1016/j.fluid.2017.03.008).
± gives the expanded uncertainty stated by the source.

Experiments:
[1] = refractive index (Na D-line) (dimensionless); xn = mol fraction of the nth substance listed; details: 101.3 kPa, Liquid, Standard Abbe refractometry
[2] = xn = mol fraction of the nth substance listed; details: for surface tension liquid-gas: Ring tensiometer; for viscosity / mass density: 101.3 kPa, Liquid; for viscosity: Capillary tube (Ostwald / Ubbelohde) method; for mass density: Vibrating tube method

CCCC[N+](CCCC)(CCCC)CCCC.[Br-] [tetrabutylammonium bromide] + NCCO
Details | mass density, [2] [kg/m3] | refractive index, [1] | surface tension liquid-gas, [2] [mN/m] | viscosity, [2] [mPa·s]
298.15 K, x1 = 0.14 | 1048.1 ± 8.5 | 1.48383 ± 0.0039 | 36.1 ± 0.5 | 22
298.15 K, x1 = 0.16 | 1056.6 ± 4 | 1.4877 ± 0.0013 | 36 ± 0.5 | 52.9 ± 19
298.15 K, x1 = 0.2 | 1060.9 ± 1.2 | 1.4881 ± 0.0011 | 35.8 ± 0.5 | 80.2 ± 14
298.15 K, x1 = 0.25 | 1061.6 ± 0.5 | 1.49229 ± 0.0017 | 35.7 ± 0.5 | 106.8 ± 15
308.15 K, x1 = 0.14 | 1038.7 ± 9.4 | 1.48033 ± 0.0039 | 35.7 ± 0.5 | 15.5
308.15 K, x1 = 0.16 | 1048 ± 4.4 | 1.48423 ± 0.0012 | 35.6 ± 0.5 | 31 ± 13
308.15 K, x1 = 0.2 | 1053.6 ± 1.4 | 1.48464 ± 0.0011 | 35.4 ± 0.5 | 54.7 ± 12
308.15 K, x1 = 0.25 | 1054.5 ± 0.6 | 1.48876 ± 0.0017 | 35.3 ± 0.5 | 77 ± 12
318.15 K, x1 = 0.14 | 1028.9 ± 13 | 1.47704 ± 0.0042 | 35.4 ± 0.6 | 12
318.15 K, x1 = 0.16 | 1041.5 ± 5 | 1.48115 ± 0.0013 | 35.2 ± 0.5 | 21.1 ± 8.8
318.15 K, x1 = 0.2 | 1046.4 ± 1.3 | 1.48169 ± 0.0011 | 35 ± 0.5 | 38.2 ± 8.1
318.15 K, x1 = 0.25 | 1047.3 ± 0.6 | 1.48547 ± 0.0016 | 34.8 ± 0.5 | 53.57 ± 8.7
328.15 K, x1 = 0.14 | 1018.5 ± 15 | 1.47349 ± 0.0043 | 35.1 ± 0.5 | 9
328.15 K, x1 = 0.16 | 1034.1 ± 5.8 | 1.47778 ± 0.0014 | 34.9 ± 0.5 | 14.4 ± 3.7
328.15 K, x1 = 0.2 | 1039.2 ± 1.4 | 1.47851 ± 0.0011 | 34.6 ± 0.5 | 20.1 ± 5.1
328.15 K, x1 = 0.25 | 1040.2 ± 0.6 | 1.48242 ± 0.0017 | 34.5 ± 0.5 | 35.29 ± 7.2
338.15 K, x1 = 0.14 | 1010.2 ± 17 | 1.46989 ± 0.0041 | 34.7 ± 0.5 | 6.8 ± 2
338.15 K, x1 = 0.16 | 1026.7 ± 6.1 | 1.47385 ± 0.0016 | 34.6 ± 0.5 | 9 ± 2.2
338.15 K, x1 = 0.2 | 1032 ± 1.4 | 1.47541 ± 0.0014 | 34.3 ± 0.5 | 13.4 ± 2.5
338.15 K, x1 = 0.25 | 1033.1 ± 0.6 | 1.47966 ± 0.0017 | 34 ± 0.5 | 18.6 ± 4.1
348.15 K, x1 = 0.14 | 1001.1 ± 18 | 1.46595 ± 0.0039 | 34.4 ± 0.5 | 5.7 ± 1.7
348.15 K, x1 = 0.16 | 1019.3 ± 6.6 | 1.46989 ± 0.0017 | 34.2 ± 0.5 | 7.5 ± 1.8
348.15 K, x1 = 0.2 | 1024.7 ± 1.5 | 1.47164 ± 0.0015 | 33.9 ± 0.5 | 10.5 ± 1.7
348.15 K, x1 = 0.25 | 1026.1 ± 0.7 | 1.47651 ± 0.0019 | 33.6 ± 0.5 | 13.8 ± 2
358.15 K, x1 = 0.14 | 992.1 ± 20 | 1.46234 ± 0.004 | 34.1 ± 0.5 | 5.2 ± 0.5
358.15 K, x1 = 0.16 | 1012 ± 7.6 | 1.46632 ± 0.0021 | 33.9 ± 0.5 | 5.2 ± 1.1
358.15 K, x1 = 0.2 | 1017.4 ± 1.6 | 1.46897 ± 0.0015 | 33.5 ± 0.5 | 8 ± 1.4
358.15 K, x1 = 0.25 | 1019 ± 0.8 | 1.47303 ± 0.0017 | 33.2 ± 0.5 | 10.2 ± 1.4
